Measured values: patent US20190070165A1, “N-HYDROXYISOQUINOLINEDIONE INHIBITORS OF HBV REPLICATION” (Saint Louis University, priority 2016, published 2019)
Where two headings read alike, the source gives them in different places. One block for each compound: values may come before it.

How the values were obtained:
[1] = test system: HBV replication; assay: HBV replication inhibition assay in HepDES19 cells (strand-preferential q-PCR); assay type: cell-based, Hepatitis B virus; details: for HBV replication inhibition (qualitative): Table 3, qualitative screen at 20 μM; for EC50: Hepatitis B virus; for HBV replication inhibition / activity: HepDES19 cells
Procedure: HBV replication assay. […] Cells were seeded into 6-well plates and incubated in DMEM/F12, 10% fetal bovine serum (FBS), 1% penicillin/streptomycin (P/S) with 1 μg/mL tetracycline. Tetracycline was withdrawn after 24 hours. The test compound was applied to duplicate wells 48 hours later in medium containing a final DMSO concentration of 1%, and medium containing the compound was refreshed daily for the following two days. Cells were harvested and non-encapsidated nucleic acids were digested with micrococcal nuclease (New England Biolabs). HBV DNA was purified from capsids using QIAamp Cador Pathogen Mini Kit (Qiagen) with proteinase K incubation overnight at 37° C. TaqMan PCR was performed for 40 cycles at an annealing temperature of 60° C.
Thirty-nine HID, HPD, flutimide, and related POH compounds (Structures shown in FIG. 3) were screened for their ability to inhibit HBV replication in HepDES19 cells. […] Inhibition was calculated as the amount of plus-polarity DNA relative to the DMSO treated controls.
Briefly, HepDES19 were seeded in 12-well plates at 2×10^5 cells per well in the absence of tetracycline. Test compound was applied to cells 48 hours after removal of tetracycline. […] HBV DNA was purified from capsids using a QIAamp pathogen minikit with proteinase K digestion extended to overnight at 37° C. TaqMan PCR was performed for 40 cycles with an annealing temperature of 60° C.

[2] = test system: HSV-1; assay: HSV-1 replication inhibition assay in Vero cells; assay type: cell-based, herpes simplex virus 1; details: for log reduction at 5 µM: read-out: HSV-1 suppression (log10 at 5 μM), class symbol
Procedure: Thirty-seven compounds were counter-screened for efficacy against HSV-1 to evaluate specificity of the inhibitors and to help determine if the efficacy against HBV replication may be due to an unsuspected indirect effect on the cells. Vero cells infected with HSV-1 at an MOI of 0.1 were treated with 5 μM of compound for 24 hours. Inhibition was calculated as log 10 suppression of plaque forming units compared with DMSO vehicle control.
Vero cells were maintained DMEM supplemented with 3% newborn calf serum, 3% bovine growth serum, 2 mM L-glutamine, and P/S. Test compounds were applied to the cells in the presence of 0.05% DMSO. The herpes simplex virus 1 (HSV-1) strain used for screening was a de-identified clinical isolate from the Saint Louis University Hospital passaged once in culture.
Compounds and virus were diluted in phosphate buffered saline (PBS) containing 2% newborn calf serum and 2 mM L-glutamine so that the final concentration of compound was 5 μM. The cells were incubated at 37° C. for 1 hour with the virus containing inoculum, then the inoculum was removed and the wells were washed once in PBS. Compound diluted to 5 μM in supplemented DMEM was added and cells were incubated at 37° C. for an additional 23 hours. The plates were then microscopically inspected for cytopathic effect (CPE) or toxicity and then frozen at −80° C. Virus titers for wells with limited CPE compared to DMSO vehicle-treated controls were then determined by plaque assay on Vero cells. Each experiment was repeated at least once.

[3] = target: T1, HBV RNaseH (Hepatitis B virus genotype D subtype ayw, UniProt P03156); details: for Inhibition of HBV RNaseH, Oligonucleotide directed cleavage assay: Table 3, compounds at 100, 60 and 20 μM, compounds 1-91 and 138-140 previously reported (Cai et al., 2014); for HBV RNaseH: Table 1, qualitative inhibition in biochemical assay
T1 sequence (P03156 671-832): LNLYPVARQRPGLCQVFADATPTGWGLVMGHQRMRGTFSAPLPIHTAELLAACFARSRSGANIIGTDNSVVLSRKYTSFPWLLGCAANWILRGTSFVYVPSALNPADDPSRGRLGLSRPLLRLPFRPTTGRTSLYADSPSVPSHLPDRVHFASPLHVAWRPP

[4] = target: T2, human RNaseH1 (Homo sapiens, UniProt O60930); assay: Oligonucleotide-directed RNA cleavage assay, human RNaseH1; assay type: biochemical; details: for IC50: Table 1, quantitative values; for Human RNaseH1: Table 1, qualitative inhibition; for inhibition of huRNaseH1: compounds at 100, 60 and 20 μM
T2 construct: made in house; host or cells: E. coli
T2 sequence (O60930 1-286): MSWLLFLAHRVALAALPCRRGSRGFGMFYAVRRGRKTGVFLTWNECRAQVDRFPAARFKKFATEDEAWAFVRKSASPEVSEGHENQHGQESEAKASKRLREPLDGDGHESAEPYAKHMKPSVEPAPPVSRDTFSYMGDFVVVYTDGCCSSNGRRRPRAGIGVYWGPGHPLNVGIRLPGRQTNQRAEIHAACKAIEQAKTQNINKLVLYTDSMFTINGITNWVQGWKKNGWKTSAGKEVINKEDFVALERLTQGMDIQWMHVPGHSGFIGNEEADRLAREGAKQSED
Description: RNaseH expression and purification.
Oligonucleotide-directed RNA cleavage assay.

[5] = target: T1, HBV RNaseH; assay: Molecular beacon RNaseH assay; details: Table 3, 0 to 500 μM
[6] = Human alphaherpesvirus 1, 24 h, 5 μM, Vero cells
[7] = HepDES19, Table 2, qualitative suppression of + and − DNA strands, read-out: EC50 (class symbols)
[8] = HepDES19, read-out: HBV replication inhibition (EC50, μm)
[9] = Table 2, HepDES19 cells, read-out: EC50
[10] = Human alphaherpesvirus 1, Vero, 24 h

Structure (SMILES): Cc1cc(C2CCCCC2)n(O)c(=O)c1 [Compound 41, Ciclopirox, reference compound]
HBV replication inhibition (qualitative) [1]: − (No inhibition detected at 20 μM)
HSV-1 suppression (log10 at 5 μM) ([2]; 5 μM, 24 hours, Vero cells, MOI 0.1, plaque forming units vs DMSO): 5.0 log10
Inhibition of HBV RNaseH, Oligonucleotide directed cleavage assay [3]: − (No inhibition detected at 100 μM)

Structure (SMILES): CCOC(=O)C1=CC2C=CC=CC2N(O)C1=O (centres unmarked) [Compound 42]
HBV replication inhibition (qualitative) [1]: − (No inhibition detected at 20 μM)
log reduction at 5 µM [2, 6]: < 1
Inhibition of HBV RNaseH, Oligonucleotide directed cleavage assay [3]: − (No inhibition detected at 100 μM)

Structure (SMILES): O=C1C=CC2C=CC=CC2N1O (centres unmarked) [Compound 43]
HBV replication inhibition (qualitative) [1]: − (No inhibition detected at 20 μM)
log reduction at 5 µM [2, 6]: < 1
Inhibition of HBV RNaseH, Oligonucleotide directed cleavage assay [3]: − (No inhibition detected at 100 μM)

Structure (SMILES): Cc1cc(C)n(O)c(=O)c1C#N [Compound 44]
HBV replication inhibition (qualitative) [1]: − (No inhibition detected at 20 μM)
log reduction at 5 µM [2, 6]: < 1
Inhibition of HBV RNaseH, Oligonucleotide directed cleavage assay [3]: − (No inhibition detected at 100 μM)

Structure (SMILES): O=C1c2cccc3cccc(c23)C(=O)N1O [Compound 45]
HBV replication inhibition (qualitative) [1]: − (No inhibition detected at 20 μM)
log reduction at 5 µM [2, 6]: < 1
Inhibition of HBV RNaseH, Oligonucleotide directed cleavage assay [3]: − (No inhibition detected at 100 μM)

Structure (SMILES): Cc1ccc(CC2C(=O)N(O)C(=O)c3ccccc32)cc1 (centres unmarked) [Compound 80]
EC50 [1, 7]: > 20 µM
HBV replication inhibition (qualitative) [1]: − (No inhibition detected at 20 μM)
log reduction at 5 µM [2, 6]: < 1
IC50 [4]: > 100 µM
Inhibition of HBV RNaseH, Oligonucleotide directed cleavage assay [3]: − (No inhibition detected at 100 μM)

Structure (SMILES): CCCNC(=O)C1C(=O)N(O)C(=O)c2ccccc21 (centres unmarked) [Compound 82]
EC50 [1, 7]: > 20 µM
HBV replication inhibition (qualitative) [1]: − (No inhibition detected at 20 μM)
log reduction at 5 µM [2, 6]: < 1
Human RNaseH1 [4]: +++ (detectable inhibition at 10 μM)
HBV RNaseH [3]: +/−
Inhibition of HBV RNaseH, Oligonucleotide directed cleavage assay [3]: − (No inhibition detected at 100 μM)

Structure (SMILES): O=C(Nc1ccccc1)C1C(=O)N(O)C(=O)c2ccccc21 (centres unmarked) [Compound 84]
EC50 [1, 8]: 6.5 ± 4.5 µM
log reduction at 5 µM [2, 6]: < 1
IC50 [4]: 3.7 µM
HBV RNaseH [3]: +/−
Inhibition of HBV RNaseH, Oligonucleotide directed cleavage assay [3]: − (No inhibition detected at 100 μM)
Inhibition of HBV RNaseH, Molecular Beacon cleavage assay [5]: − (No inhibition detected at 500 μM)

Structure (SMILES): O=C(NCc1ccccc1)C1C(=O)N(O)C(=O)c2ccccc21 (centres unmarked) [Compound 85]
EC50 [1, 8]: 6.5 ± 1.5 µM
EC50 [1, 9]: 6.5 µM
log reduction at 5 µM [2, 10]: < 1
IC50 [4]: 3.9 µM
HBV RNaseH [3]: +/−
Inhibition of HBV RNaseH, Oligonucleotide directed cleavage assay [3]: − (No inhibition detected at 100 μM)
Inhibition of HBV RNaseH, Molecular Beacon cleavage assay [5]: − (No inhibition detected at 500 μM)

Structure (SMILES): COc1ccc(CNC(=O)C2C(=O)N(O)C(=O)c3ccccc32)cc1 (centres unmarked) [Compound 90]
EC50 [1, 8]: 19 ± 0.9 µM
EC50 [1, 9]: 18 µM
log reduction at 5 µM [2, 6]: < 1
Human RNaseH1 [4]: ++ (detectable inhibition at 20 μM)
Inhibition of HBV RNaseH, Oligonucleotide directed cleavage assay [3]: − (No inhibition detected at 100 μM)
Inhibition of HBV RNaseH, Molecular Beacon cleavage assay [5]: − (No inhibition detected at 500 μM)

Inhibition of HBV RNaseH, Oligonucleotide directed cleavage assay [3]: − (No inhibition detected at 100 μM)
Structure (SMILES): O=C1c2ccc3ccccc3c2C(=O)N1O [Compound 128]
log reduction at 5 µM [2, 6]: < 1

Structure (SMILES): O=C(O)c1nc(Cl)c2ccccc2c1O [Compound 132]
HBV replication inhibition (qualitative) [1]: − (No inhibition detected at 20 μM)
Inhibition of HBV RNaseH, Oligonucleotide directed cleavage assay [3]: − (No inhibition detected at 100 μM)

Structure (SMILES): O=C1CCC(=O)N1O [Compound 139]
HBV replication inhibition / activity [1]: inactive
HBV replication inhibition (qualitative) [1]: − (No inhibition detected at 20 μM)
Inhibition of HBV RNaseH, Oligonucleotide directed cleavage assay [3]: − (No inhibition detected at 100 μM)

Structure (SMILES): CC1=C(C#N)C(=O)NC(=O)C1Cc1ccc(-c2ccccc2)o1 (centres unmarked) [Compound 140]
HBV replication inhibition (qualitative) [1]: − (No inhibition detected at 20 μM)
log reduction at 5 µM [2, 6]: < 1
Inhibition of HBV RNaseH, Oligonucleotide directed cleavage assay [3]: − (No inhibition detected at 100 μM)

Structure (SMILES): CC1CC(=O)N(O)C(CC(C)CC(C)(C)C)C1 (centres unmarked) [Compound 191, Piroctone olamine, reference compound]
HBV replication inhibition (qualitative) [1]: − (No inhibition detected at 20 μM)
Inhibition of HBV RNaseH, Oligonucleotide directed cleavage assay [3]: − (No inhibition detected at 100 μM)

Structure (SMILES): Oc1nc2ccccc2nc1O [Compound 198, 2,3-dihydroxy-quinoxaline]
HBV replication inhibition (qualitative) [1]: − (No inhibition detected at 20 μM)
log reduction at 5 µM [2, 6]: < 1
Inhibition of HBV RNaseH, Oligonucleotide directed cleavage assay [3]: − (No inhibition detected at 100 μM)

Structure (SMILES): NN1C(=O)Cc2ccccc2C1=O [Compound 204]
HBV replication inhibition / activity [1]: inactive
HBV replication inhibition (qualitative) [1]: − (No inhibition detected at 20 μM)
log reduction at 5 µM [2, 6]: < 1
inhibition of huRNaseH1 [4]: detectably inhibited
Inhibition of HBV RNaseH, Oligonucleotide directed cleavage assay [3]: − (No inhibition detected at 100 μM)

Structure (SMILES): Nc1cccc(O)n1 [Compound 206]
HBV replication inhibition (qualitative) [1]: − (No inhibition detected at 20 μM)
log reduction at 5 µM [2, 6]: < 1
inhibition of huRNaseH1 [4]: detectably inhibited
Inhibition of HBV RNaseH, Oligonucleotide directed cleavage assay [3]: − (No inhibition detected at 100 μM)

Structure (SMILES): O=C1C(=O)N(O)C2CCCCC2N1O (centres unmarked) [Compound 217]
HBV replication inhibition (qualitative) [1]: − (No inhibition detected at 20 μM)
log reduction at 5 µM [2, 10]: < 1
inhibition of huRNaseH1 [4]: detectably inhibited
Inhibition of HBV RNaseH, Oligonucleotide directed cleavage assay [3]: − (No inhibition detected at 100 μM)

Structure (SMILES): O=C1Cn2c(cc3ccccc32)C(=O)N1O [Compound 236]
HBV replication inhibition (qualitative) [1]: − (No inhibition detected at 20 μM)
log reduction at 5 µM [2, 6]: < 1
Inhibition of HBV RNaseH, Oligonucleotide directed cleavage assay [3]: − (No inhibition detected at 100 μM)

Structure (SMILES): O=C1Cn2c(cc3cc(Cl)ccc32)C(=O)N1O [Compound 237]
HBV replication inhibition (qualitative) [1]: − (No inhibition detected at 20 μM)
log reduction at 5 µM [2, 6]: < 1
Inhibition of HBV RNaseH, Oligonucleotide directed cleavage assay [3]: − (No inhibition detected at 100 μM)

Structure (SMILES): COc1ccc2c(c1)cc1n2CC(=O)N(O)C1=O [Compound 238]
HBV replication inhibition (qualitative) [1]: − (No inhibition detected at 20 μM)
log reduction at 5 µM [2, 6]: < 1
Inhibition of HBV RNaseH, Oligonucleotide directed cleavage assay [3]: − (No inhibition detected at 100 μM)

Structure (SMILES): O=C1Cn2c(cc3ccccc32)C(=O)N1 [Compound 239]
HBV replication inhibition (qualitative) [1]: − (No inhibition detected at 20 μM)
log reduction at 5 µM [2, 6]: < 1
Inhibition of HBV RNaseH, Oligonucleotide directed cleavage assay [3]: − (No inhibition detected at 100 μM)

Structure (SMILES): O=C1Cn2c(cc3cc(O)ccc32)C(=O)N1O [Compound 240]
HBV replication inhibition (qualitative) [1]: − (No inhibition detected at 20 μM)
log reduction at 5 µM [2, 6]: < 1
inhibition of huRNaseH1 [4]: detectably inhibited
Inhibition of HBV RNaseH, Oligonucleotide directed cleavage assay [3]: − (No inhibition detected at 100 μM)

Structure (SMILES): O=C1Cn2c(cc3cc(F)ccc32)C(=O)N1O [Compound 241]
HBV replication inhibition (qualitative) [1]: − (No inhibition detected at 20 μM)
log reduction at 5 µM [2, 6]: < 1
Inhibition of HBV RNaseH, Oligonucleotide directed cleavage assay [3]: − (No inhibition detected at 100 μM)
